According to paper PMC8774190, “Characterization and Modification of Light-Sensitive Phosphodiesterases from Choanoflagellates” (Biomolecules, 2022):

Tested on: T1, CfRhoPDE1
T1 construct: full-length with N-terminal YFP tag kept; gene codon-optimised to Mus musculus, pGEMHE vector; Xenopus oocyte membrane fraction; all-trans retinal supplied
Assay: cGMP hydrolysis by oocyte membranes, chemiluminescent immunoassay, Michaelis-Menten fit
Type: biochemical, Choanoeca flexa
Conditions: dark; pH 7.3, 5 mM MgCl2, 100 mM NaCl, 5 mM DTT; 1-100 μM cGMP

- Km: ~15 µM
Compound: Nc1nc2c(ncn2[C@@H]2O[C@@H]3COP(=O)(O)O[C@H]3[C@H]2O)c(=O)[nH]1 [cGMP]
